{"source": "patent US20130012466A1", "about": "(priority 2006, published 2013)", "key": {"NCI-H460": {"test_system": "NCI-H460", "assay": "Cytotoxicity assay (cell titer-glo and calcein AM), NCI-H460", "details": "NCI-H460, % error in parentheses"}, "Du145": {"test_system": "Du145", "assay": "Cytotoxicity assay (cell titer-glo and calcein AM), Du145", "details": "Du145, % error in parentheses"}, "ADR-RES": {"test_system": "ADR-RES", "assay": "Cytotoxicity assay (cell titer-glo and calcein AM), ADR-RES", "details": "NCI/ADR RES, % error in parentheses"}, "SK-OV-3": {"test_system": "SK-OV-3", "assay": "Cytotoxicity assay (cell titer-glo and calcein AM), SK-OV-3", "details": "SK-OV-3, % error in parentheses"}, "SF-268": {"test_system": "SF-268", "assay": "Cytotoxicity assay (cell titer-glo and calcein AM), SF-268", "details": "SF-268, % error in parentheses"}, "A549": {"test_system": "A549", "assay": "Cytotoxicity assay (cell titer-glo and calcein AM), A549", "details": "A549, % error in parentheses"}, "Hep3B": {"test_system": "Hep3B", "assay": "Cytotoxicity assay (cell titer-glo and calcein AM), Hep3B", "details": "Hep 3B, % error in parentheses"}, "[1]": {"test_system": "mouse mammary normal epithelial control cell line", "assay": "Cytotoxicity assay, normal control cell line"}, "MCF7": {"test_system": "MCF7", "assay": "Cytotoxicity assay (cell titer-glo and calcein AM), MCF7"}, "[2]": {"assay": "Precipitation in assay media", "format": "physicochemical", "details": "cell culture media / assay"}, "[3]": {"details": "read-out: Cytotoxicity IC50, NCI-H460, CTG, CTG (cell titer-glo) readout"}, "[4]": {"details": "read-out: Cytotoxicity IC50, NCI-H460, calcein, calcein AM readout"}, "[5]": {"details": "read-out: Cytotoxicity IC50, Du145, CTG, CTG (cell titer-glo) readout"}, "[6]": {"details": "read-out: Cytotoxicity IC50, Du145, calcein, calcein AM readout"}, "[7]": {"details": "read-out: Cytotoxicity IC50, NCI/ADR RES, CTG, CTG (cell titer-glo) readout"}, "[8]": {"details": "read-out: Cytotoxicity IC50, NCI/ADR RES, calcein, calcein AM readout"}, "[9]": {"details": "read-out: Cytotoxicity IC50, SK-OV-3, CTG, CTG (cell titer-glo) readout"}, "[10]": {"details": "read-out: Cytotoxicity IC50, SK-OV-3, calcein, calcein AM readout"}, "[11]": {"details": "read-out: Cytotoxicity IC50, SF-268, CTG, CTG (cell titer-glo) readout"}, "[12]": {"details": "read-out: Cytotoxicity IC50, SF-268, calcein, calcein AM readout"}, "[13]": {"details": "read-out: Cytotoxicity IC50, A549, CTG, CTG (cell titer-glo) readout"}, "[14]": {"details": "read-out: Cytotoxicity IC50, A549, calcein, calcein AM readout"}, "[15]": {"details": "read-out: Cytotoxicity IC50, Hep 3B, CTG, CTG (cell titer-glo) readout"}, "[16]": {"details": "read-out: Cytotoxicity IC50, Hep 3B, calcein, calcein AM readout"}, "[17]": {"details": "read-out: Cytotoxicity IC50, NmuMG, CTG, CTG (cell titer-glo) readout, % error in parentheses"}, "[18]": {"details": "read-out: Cytotoxicity IC50, NmuMG, calcein, calcein AM readout, % error in parentheses"}, "[19]": {"details": "read-out: Cytotoxicity IC50, MCF7, CTG, CTG (cell titer-glo) readout, % error in parentheses"}, "[20]": {"details": "read-out: Cytotoxicity IC50, MCF7, calcein, calcein AM readout, % error in parentheses"}}, "note": "“Also recorded” adds a separate entry of the source. Read-outs that look alike come from different tables or passages of the source.", "data": [{"molecule": "COc1cc2c(c(OC)c1OC)-c1ccc(OC)c(=O)cc1[C@@H](NC(=O)CN(OC)[C@@H]1O[C@H](CO)[C@@H](O[C@H]3O[C@H](CO)[C@@H](O[C@H]4O[C@H](CO)[C@@H](O)[C@H](O)[C@H]4O)[C@H](O)[C@H]3O)[C@H](O)[C@H]1O)CC2", "note": "[Col13, maltotrioside]", "values": [{"measurement": "IC50", "setting": "NCI-H460; [3]", "result": "> 10", "unit": "µM"}, {"measurement": "IC50", "setting": "NCI-H460; [4]", "result": 2.58, "unit": "µM"}, {"measurement": "IC50", "setting": "Du145; [5]", "result": "> 10", "unit": "µM"}, {"measurement": "IC50", "setting": "Du145; [6]", "result": "> 10", "unit": "µM"}, {"measurement": "IC50", "setting": "ADR-RES; [7]", "result": "> 10", "unit": "µM"}, {"measurement": "IC50", "setting": "ADR-RES; [8]", "result": "> 10", "unit": "µM"}, {"measurement": "IC50", "setting": "HCT-116", "result": "> 10", "unit": "µM"}, {"measurement": "IC50", "setting": "SK-OV-3; [9]", "result": "> 10", "unit": "µM"}, {"measurement": "IC50", "setting": "SK-OV-3; [10]", "result": "> 10", "unit": "µM"}, {"measurement": "IC50", "setting": "SF-268; [11]", "result": "> 10", "unit": "µM"}, {"measurement": "IC50", "setting": "SF-268; [12]", "result": "> 10", "unit": "µM"}, {"measurement": "IC50", "setting": "A549; [13]", "result": "> 10", "unit": "µM"}, {"measurement": "IC50", "setting": "A549; [14]", "result": "> 10", "unit": "µM"}, {"measurement": "IC50", "setting": "Hep3B; [15]", "result": "> 10", "unit": "µM"}, {"measurement": "IC50", "setting": "Hep3B; [16]", "result": "> 10", "unit": "µM"}, {"measurement": "IC50", "setting": "[1]; [17]", "result": "> 10", "unit": "µM"}, {"measurement": "IC50", "setting": "[1]; [18]", "result": "> 10", "unit": "µM"}, {"measurement": "IC50", "setting": "MCF7; [19]", "result": 9.86, "unit": "µM"}, {"measurement": "IC50", "setting": "MCF7; [20]", "result": "> 10", "unit": "µM"}]}, {"molecule": "COc1cc2c(c(OC)c1OC)-c1ccc(OC)c(=O)cc1C(NC(=O)CN(OC)C1OC(COCc3ccccc3)C(OCc3ccccc3)C1OCc1ccccc1)CC2", "note": "(centres unmarked) [Col53]", "values": [{"measurement": "IC50", "setting": "NCI-H460; [3]", "result": 0.041, "unit": "µM"}, {"measurement": "IC50", "setting": "NCI-H460; [4]", "result": 0.071, "unit": "µM"}, {"measurement": "IC50", "setting": "Du145; [5]", "result": 0.041, "unit": "µM"}, {"measurement": "IC50", "setting": "Du145; [6]", "result": 0.032, "unit": "µM"}, {"measurement": "IC50", "setting": "ADR-RES; [7]", "result": 0.046, "unit": "µM"}, {"measurement": "IC50", "setting": "ADR-RES; [8]", "result": 0.037, "unit": "µM"}, {"measurement": "IC50", "setting": "SK-OV-3; [9]", "result": 0.042, "unit": "µM"}, {"measurement": "IC50", "setting": "SK-OV-3; [10]", "result": 0.036, "unit": "µM"}, {"measurement": "IC50", "setting": "SF-268; [11]", "result": 0.037, "unit": "µM"}, {"measurement": "IC50", "setting": "SF-268; [12]", "result": 0.018, "unit": "µM"}, {"measurement": "IC50", "setting": "A549; [13]", "result": 0.048, "unit": "µM"}, {"measurement": "IC50", "setting": "A549; [14]", "result": 0.062, "unit": "µM"}, {"measurement": "precipitation", "setting": "[2]", "result": "precipitation in cell culture media; also recorded: precipitated"}, {"measurement": "IC50", "setting": "Hep3B; [15]", "result": 0.047, "unit": "µM"}, {"measurement": "IC50", "setting": "Hep3B; [16]", "result": 0.069, "unit": "µM"}, {"measurement": "IC50", "setting": "[1]; [17]", "result": 0.12, "unit": "µM"}, {"measurement": "IC50", "setting": "[1]; [18]", "result": 0.392, "unit": "µM"}, {"measurement": "IC50", "setting": "MCF7; [19]", "result": 0.049, "unit": "µM"}, {"measurement": "IC50", "setting": "MCF7; [20]", "result": 0.039, "unit": "µM"}]}]}
